The values that follow come from ChEMBL document CHEMBL2203096, “Recent advances in hypoxia-inducible factor (HIF)-1 inhibitors” (Eur J Med Chem, 2012).

Data set [1] concerns the target T1, Hypoxia-inducible factor 1-alpha (Homo sapiens, UniProt Q16665). The data set can be described thus: Inhibition of HIF-1alpha transcriptional co-activator p300 interaction.
For data set [2], the target named is T1, Hypoxia-inducible factor 1-alpha. Kind of data set: Inhibition of HIF-1alpha-mediated VEGF expression in human Hep3b cells by luciferase reporter gene assay. The format is cell-based. (In general: A reporter such as luciferase makes a cellular process visible.)
The target is the same in data set [3]. The data set can be described thus: Inhibition of HIF-1alpha-mediated VEGF secretion in human Hep3b cells by ELISA. The format is cell-based. For orientation: ELISA stands for enzyme-linked immunosorbent assay.
Another data set concerns MDA-MB-435. Kind of data set: Antitumor activity against human MDA-MB-435 cells xenografted in nude mouse assessed as inhibition of tumor growth at 20 to 50 mg/kg, qd for 5 weeks. The format is functional. The conditions noted are these: dose mg/kg 20-50.
Data set [4] can be described thus: Apparent permeability across human Caco2 cells at 20 uM. The conditions noted are these: Caco-2. The format is ADME, cell-based.
Data set [5] deals with T1, Hypoxia-inducible factor 1-alpha. The data set can be described thus: Inhibition of HIF-1alpha in human LN229 cells under hypoxia condition by HRE-luciferase reporter gene assay. The format is cell-based.
Data set [6] shares this target. The data set can be described thus: Inhibition of HIF-1alpha in human HCT116 cells under hypoxia condition by HRE-luciferase reporter gene assay. The format is cell-based, HCT-116.
A short description of data set [7]: Metabolic stability in rat Hepatocyte assessed as compound remaining at 1 umol/L after 2 hrs by RP-HPLC analysis. The format is ADME, cell-based. The conditions noted are these: hepatocytes, read-out: Stability.
Data set [8] is described as follows: Metabolic stability in human Hepatocyte assessed as compound remaining at 1 umol/L after 2 hrs by RP-HPLC analysis. The format is ADME, cell-based. The conditions noted are these: hepatocytes, read-out: Stability.
Data set [9] in a line: Apparent permeability across human Caco2 cells at 10 uM. The conditions noted are these: Caco-2. The format is ADME, cell-based. (In general: Caco-2 monolayers are a common model of the intestinal barrier.)
Data set [10] can be described thus: Antitumor activity against human Hep3B cells xenografted in nude mouse assessed as reduction in tumor size at 10 to 30 mg/kg/day, ip for 2 weeks (reference value: 900 mm3). The format is functional, Hep 3B2. The conditions noted are these: route intraperitoneal.
The nature of data set [11]: Apparent permeability across human Caco2 cells at 5 uM. The format is ADME, cell-based. The conditions noted are these: Caco-2.
The test system of another data set is HCT-116. The data set can be described thus: Antitumor activity against human HCT116 cells xenografted in mouse assessed as inhibition of tumor growth at 30 mg/kg, iv. The format is functional. The conditions noted are these: read-out: TGI.
A further data set has as its system Mus musculus. The data set can be described thus: Toxicity in human HCT116 cells xenografted mouse assessed as decrease in body weight at 30 mg/kg, iv. The format is organism-based, HCT-116. Also on record: dose 30 mg/kg, route intravenous; scale not given: the % may be the effect or the level left. The conditions noted are these: in vivo.
Data set [12] can be described thus: Antitumor activity against human […] cells xenografted in athymic nude mice assessed as reduction of tumor size at 20 mg/kg, qd. The format is functional. Also noted: scale not given: the % may be the effect or the level left.
The next data set has as its system Nucleic Acid. Kind of data set: Binding affinity to HIF-1 5'-CGTG-3' DNA sequence in human U251 cells assessed as inhibition of HRE-mediated reporter activation. The format is cell-based. The conditions noted are these: u-251.

The structures appear in SMILES notation.

T1 sequence (Q16665 whole entry): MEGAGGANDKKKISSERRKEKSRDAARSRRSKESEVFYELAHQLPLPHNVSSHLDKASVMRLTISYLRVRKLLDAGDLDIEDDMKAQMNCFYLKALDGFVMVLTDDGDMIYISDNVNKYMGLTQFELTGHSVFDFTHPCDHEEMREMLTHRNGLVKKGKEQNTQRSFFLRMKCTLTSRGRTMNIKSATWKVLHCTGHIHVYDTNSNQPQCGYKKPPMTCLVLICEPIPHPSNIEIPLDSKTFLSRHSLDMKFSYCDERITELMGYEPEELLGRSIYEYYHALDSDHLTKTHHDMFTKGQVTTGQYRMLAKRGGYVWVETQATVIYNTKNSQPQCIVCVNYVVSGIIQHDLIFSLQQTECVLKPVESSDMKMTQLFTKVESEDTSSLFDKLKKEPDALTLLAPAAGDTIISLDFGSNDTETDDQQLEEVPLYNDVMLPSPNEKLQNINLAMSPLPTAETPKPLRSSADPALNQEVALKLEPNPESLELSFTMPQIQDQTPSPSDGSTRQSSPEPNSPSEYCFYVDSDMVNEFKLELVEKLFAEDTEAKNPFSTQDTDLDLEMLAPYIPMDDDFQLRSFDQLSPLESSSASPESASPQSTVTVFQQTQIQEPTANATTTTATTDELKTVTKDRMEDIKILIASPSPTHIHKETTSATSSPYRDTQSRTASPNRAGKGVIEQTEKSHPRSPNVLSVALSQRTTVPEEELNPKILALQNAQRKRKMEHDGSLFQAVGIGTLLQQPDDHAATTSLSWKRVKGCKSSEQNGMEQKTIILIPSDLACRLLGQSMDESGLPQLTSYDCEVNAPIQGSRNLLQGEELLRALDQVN

For orientation: IC50 means the concentration needed to halve the response being measured. As for `CN1C(=O)[C@@]23C[C@]4([C@]56C[C@@]78SS[C@@](CO)(C(=O)N7[C@H]5Nc5ccccc56)N(C)C8=O)c5ccccc5N[C@@H]4N2C(=O)[C@]1(CO)SS3` [CHAETOCIN], the IC50 in data set [1] came out at 12.5 µM; in data set [2] it was 0.04 µM; in [3], 0.1 µM.

In general, TGI refers to how far tumour growth fell short of that in controls. Turning to `COC(=O)c1ccc2[nH]c(COc3ccc(C45CC6CC(CC(C6)C4)C5)cc3)nc2c1`, in the data set on MDA-MB-435, the TGI stood at 58.6%. As a reminder, the Papp is a coefficient for how fast a substance crosses the barrier. Take `CNC(=C[N+](=O)[O-])NCCSCc1ccc(CN(C)C)o1` [RANITIDINE]: in [4], the Papp at 20 µM came to 6 nm/s.

With `COc1c(C(C2CCCCC2)n2cnc3c(Cl)cccc32)ccc2c1C=CC(C)(C)O2` (centres undefined), the IC50 in data set [5] amounted to 7.5 µM.

Take `Cc1ccc(Cn2nc(-c3nc4ccc(-c5ccc(Cl)cc5)cc4[nH]3)cc2C)cc1`: inhibition in data set [6] was half-maximal at 0.003 µM (IC50). Take `COc1cc2c(cc1C(N)=O)CC[C@@H]1[C@@H]2CC[C@]2(C)CCC[C@@H]12`: the remaining at 2 h, 1 µM in [7] and in data set [8] was more than 65% in each case. With `COCCc1ccc(OCC(O)CNC(C)C)cc1` (centres undefined) [METOPROLOL], in data set [9], the apparent permeability (Papp) at 10 µM was 272 nm/s. For `OCc1ccc(-c2nn(Cc3ccccc3)c3ccccc23)o1`, the Activity in data set [10] was 400 mm3.

Turning to `O=C(COc1ccc(C23CC4CC(CC(C4)C2)C3)cc1)Nc1cc(C(=O)NCCCn2ccnc2)ccn1`, the Papp at 5 µM in [11] worked out at 229 nm/s. In the data set on HCT-116, the inhibition in vivo at 30 mg/kg stood at 51.3%. In addition, the Activity with Mus musculus was 92.7%. `COc1cc2c(cc1O)CC[C@@H]1[C@@H]2CC[C@]2(C)[C@@H](O)CC[C@@H]12` [2-METHOXYESTRADIOL]: the remaining at 2 h, 1 µM in data set [7] and in data set [8] was more than 65% each time.

In the case of `COC(=O)c1ccc(O)c(NC(=O)COc2ccc(C34CC5CC(CC(C5)C3)C4)cc2)c1`, the Activity in data set [12] came out at 53.6%. Take `Cn1c(CO)ccc1-c1nn(Cc2ccccc2)c2ccccc12`: the Activity in [10] is given as 400 mm3. Usually EC50 stands for the concentration giving half of the maximal effect. Consider `CS[C@H]1SC[C@H]2C(=O)N(C)[C@@H](C(C)C)C(=O)OC[C@@H](NC(=O)c3cnc4ccccc4n3)C(=O)N[C@@H](C)C(=O)N(C)[C@@H]1C(=O)N(C)[C@@H](C(C)C)C(=O)OC[C@@H](NC(=O)c1cnc3ccccc3n1)C(=O)N[C@@H](C)C(=O)N2C` [ECHINOMYCIN], for which the EC50 in the data set on Nucleic Acid is 0.0012 µM.
